Test results reported in patent publication US20250084063A1 (Incyte Corporation, priority 2023, published 2025).

Tests used:
MRGPRX2 [1] = biological target: T1, MRGPRX2 (Homo sapiens, UniProt Q96LB1); assay: MRGPRX2 IP1 HTRF assay; assay type: cell-based; set-up: host or cells: CHO-K1; conditions: CHO-K1 cells stably expressing human MRGPRX2; IP1 accumulation, agonist Cortistatin 14 1 μM
T1 sequence (Q96LB1 1-330): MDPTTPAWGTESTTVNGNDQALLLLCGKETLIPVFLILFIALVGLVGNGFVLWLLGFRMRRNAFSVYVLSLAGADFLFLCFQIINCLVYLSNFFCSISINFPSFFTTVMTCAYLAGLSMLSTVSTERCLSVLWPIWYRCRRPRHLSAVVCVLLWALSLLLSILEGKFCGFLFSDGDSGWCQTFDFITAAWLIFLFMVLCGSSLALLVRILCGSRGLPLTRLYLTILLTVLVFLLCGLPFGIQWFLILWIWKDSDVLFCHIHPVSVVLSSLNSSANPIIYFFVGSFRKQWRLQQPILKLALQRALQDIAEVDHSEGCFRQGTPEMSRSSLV
Text: Example B: MRGPRX2 IP1 HTRF Assay
This assay measures compound inhibition of myo-Inositol 1 phosphate (IP1) accumulation in CHO-K1 cells. Chinese hamster ovary (CHO-K1) cells stably expressing human MRGPRX2 were purchased from GenScript (Piscataway, NJ).
For the HTRF IP1 determination, an IP-One GqKit (Perkin Elmer Cisbio, Waltham, MA), which includes all reagents and buffers in this protocol, was used. The cells were maintained in culture medium (Ham's F-12K) containing 10% (v/v) FBS, and 200 μg/mL Zeocin. For the assay, the cells were harvested and resuspended in culture medium with 2% FBS and without Zeocin, then were passed through a 40 μm filter. Cells were added at 20000 cells in a 5 μL/well to a 384-well white small volume cell culture plate (Greiner VWR, Radnor, PA) which contained 50 nL/well of test compound serially diluted at a selected concentration range in DMSO. 5 μL/well of prepared 2× Stimulation Buffer2 was then added to plates and was incubated at 37° C. with 5% CO2 for 1 h. 5 μL/well of agonist Cortistatin 14 (Bio-TechneR&D Systems, Minneapolis, MN) in 1× Stimulation Buffer 2, for a 1 μM final concentration, was then added to plates and incubated at 37° C. with 5% CO2 for 1 h. 6 μL/well of 1:20 diluted Detection Reagent Mix (d2 and Cryptate) was added to the plates and incubated for 1 h in the dark. Plates were read on the PHERAstar microplate reader (BMG Labtech Cary, NC) to determine the HTRF ratio of the acceptor and donor emission signals. The IP1 concentrations were calculated from a standard curve following the IP-One GQ kit instructions. Wells with DMSO only and wells with high concentration of reference antagonist were used as controls for normalization. Compound IC50 curves were globally fitted with 3- or 4-parameter Hill equation in a Genedata Screener (Genedata Basel, Switzerland).

MRGPRX2 [2] = biological target: T1, MRGPRX2; assay: MRGPRX2 FLIPR calcium mobilization assay; assay type: cell-based; set-up: host or cells: CHO-K1; conditions: CHO-K1 cells stably expressing human MRGPRX2; Ca2+ release, agonist Cortistatin-14 at EC80
Experimental: Example A. MRGPRX2 FLIPR Calcium Mobilization Assay
Chinese hamster ovary (CHO-K1) cells stably expressing human MRGPRX2 were purchased from Genescript (Piscataway, NJ). The cells were maintained in culture medium (Ham's F-12K) containing 10% (v/v) FBS, 200 μg/mL Zeocin, 100 units/mL penicillin G and 100 μg/mL streptomycin (Life Technologies, Carlsbad, CA). For the assay, the cells were harvested and resuspended with culture medium without Zeocin before plating at 8000 cells per well in 20 μL in 384-well black clear bottom cell culture plates (VWR, Radnor, PA). After 24 h culture at 37° C. and 5% CO2, the cells were loaded with 20 μL/well of calcium dye (FLIPR Calcium 6 Assay Kit, Molecular Devices, San Jose, CA) diluted in loading buffer (1×Hank's Balanced Salt Solution (HBSS), 5 mM probenecid, 20 mM 4-(2-hydroxyethyl)-1-piperazineethanesulfonic acid (HEPES), pH 7.4, VWR, Radnor, PA) followed with 45 min incubation at 37° C. and 40 min at room temperature in the dark. Cells were then treated with the addition of 10 uL/well test compounds with a range of increasing concentrations diluted in the assay buffer (1×HBSS, 20 mM HEPES, pH 7.4, VWR, Radnor, PA) with FLIPR Penta (Molecular Devices. San Jose, CA) and incubated for 30 min. at room temperature. Ca^2+ release was measured with FLIPR Penta with 10 seconds basal fluorescence measurement, then 12.5 μL of 5× agonist Cortistatin-14 (Tocris, Minneapolis, MN) at final concentration corresponding to the EC80 were added followed with continued fluorescence signal monitoring for an additional 110 seconds. The base line adjusted (median of first 10s base line) max value of the Relative Fluorescence Unit (RFU) was plotted against compound concentrations. Wells with no compound were served as the positive controls, and wells with high concentration of reference antagonist were used as negative controls. IC50 curves were globally fitted with 3- or 4-parameter Hill equation in a Genedata Screener (Genedata Basel, Switzerland).

IC50 (MRGPRX2 [1]) [nM]	IC50 (MRGPRX2 [2]) [nM]	Structure (SMILES)
0.1 to 100	0.1 to 100	Cc1ccn(C2(CNc3cc(C(F)(F)F)nc4ccc(Cl)cc34)CN(C(N)=O)C2)n1 [Example 103, 3-(((6-Chloro-2-(trifluoromethyl)quinolin-4-yl)amino)methyl)-3-(3-methyl-1H-pyrazol-1-yl)azetidine-1-carboxamide]
0.1 to 100	0.1 to 100	CNC(=O)N1CC(CNc2cc(C(F)(F)F)nc3ccc(Cl)cc23)(c2ccc(F)cn2)C1 [Example 51, 3-(((6-Chloro-2-(trifluoromethyl)quinolin-4-yl)amino)methyl)-3-(5-fluoropyridin-2-yl)-N-methylazetidine-1-carboxamide]
0.1 to 100	0.1 to 100	Fc1ccc(C2(CNc3cc(C(F)(F)F)nc4ccc(Cl)cc34)COC2)cc1 [Example 50, 6-Chloro-N-((3-(4-fluorophenyl)oxetan-3-yl)methyl)-2-(trifluoromethyl)quinolin-4-amine]
0.1 to 100	0.1 to 100	NS(=O)(=O)N1CC(CNc2cc(C(F)(F)F)nc3ccc(Cl)cc23)(n2cc(Cl)cn2)C1 [Example 36, 3-(4-Chloro-1H-pyrazol-1-yl)-3-(((6-chloro-2-(trifluoromethyl)quinolin-4-yl)amino)methyl)azetidine-1-sulfonamide]
0.1 to 100	0.1 to 100	NC(=O)N1CC(CNc2cc(C(F)(F)F)nc3ccc(Cl)cc23)(c2ccc(F)cc2)C1 [Example 39, 3-(((6-Chloro-2-(trifluoromethyl)quinolin-4-yl)amino)methyl)-3-(4-fluorophenyl)azetidine-1-carboxamide]
0.1 to 100	0.1 to 100	NS(=O)(=O)N1CCC(CNc2cc(C(F)(F)F)nc3ccc(Cl)cc23)(c2ccc(F)cn2)CC1 [Example 100, 4-(((6-Chloro-2-(trifluoromethyl)quinolin-4-yl)amino)methyl)-4-(5-fluoropyridin-2-yl) piperidine-1-sulfonamide]
0.1 to 100	0.1 to 100	NS(=O)(=O)N1CC(CNc2cc(C(F)(F)F)nc3ccc(Cl)cc23)(c2ccc(Cl)cc2)C1 [Example 33, 3-(((6-Chloro-2-(trifluoromethyl)quinolin-4-yl)amino)methyl)-3-(4-chlorophenyl)azetidine-1-sulfonamide]
0.1 to 100	0.1 to 100	NS(=O)(=O)N1CC(CNc2cc(C(F)(F)F)nc3ccc(Cl)cc23)(c2ccc(F)c(F)c2)C1 [Example 34, 3-(((6-Chloro-2-(trifluoromethyl)quinolin-4-yl)amino)methyl)-3-(3,4-difluorophenyl)azetidine-1-sulfonamide]
0.1 to 100	0.1 to 100	CNC1CCC(CNc2cc(C(F)(F)F)nc3ccc(Cl)cc23)(c2ccccc2)C1 (stereo not drawn) [Example 55, 6-Chloro-N-((3-(methylamino)-1-phenylcyclopentyl)methyl)-2 (trifluoromethyl)quinolin-4-amine]
0.1 to 100	0.1 to 100	NC(=O)N1CCC(CNc2cc(C(F)(F)F)nc3ccc(Cl)cc23)(c2ccccc2)CC1 [Example 13, 4-(((6-Chloro-2-(trifluoromethyl)quinolin-4-yl)amino)methyl)-4-phenylpiperidine-1-carboxamide]
–	0.1 to 100	NC(=O)N1CC(CNc2cc(C(F)(F)F)nc3cc(Cl)ccc23)(c2ccc(F)cn2)C1 [Example 57, 3-(((7-Chloro-2-(trifluoromethyl)quinolin-4-yl)amino)methyl)-3-(5-fluoropyridin-2-yl)azetidine-1-carboxamide]

The remaining lines, values behind:

Structure (SMILES)	IC50 (MRGPRX2 [1]) [nM]	IC50 (MRGPRX2 [2]) [nM]
N#Cc1cnn(C2(CNc3cc(C(F)(F)F)nc4ccc(Cl)cc34)CN(C(N)=O)C2)c1 [Example 101, 3-(((6-Chloro-2-(trifluoromethyl)quinolin-4-yl)amino)methyl)-3-(4-cyano-1H-pyrazol-1-yl)azetidine-1-carboxamide]	0.1 to 100	0.1 to 100
CN1CCC(CNc2cc(C(F)(F)F)nc3ccc(Cl)cc23)(c2ccccc2)CC1 [Example 15, 6-Chloro-N-((1-methyl-4-phenylpiperidin-4-yl)methyl)-2-(trifluoromethyl)quinolin-4-amine]	0.1 to 100	0.1 to 100
NC(=O)N1CC(CNc2cc(C(F)(F)F)nc3cc(C(F)(F)F)ccc23)(c2ccc(F)cn2)C1 [Example 63, 3-(((2,7-Bis(trifluoromethyl)quinolin-4-yl)amino)methyl)-3-(5-fluoropyridin-2-yl)azetidine-1-carboxamide]	> 1000	100 to 1000
Cc1cccc2nc(C(F)(F)F)cc(NCC3(c4ccc(F)cn4)CN(C(N)=O)C3)c12 [Example 62, 3-(5-Fluoropyridin-2-yl)-3-(((5-methyl-2-(trifluoromethyl)quinolin-4-yl)amino)methyl)azetidine-1-carboxamide]	> 1000	> 1000
COc1cnn(C2(CNc3cc(C(F)(F)F)nc4ccc(Cl)cc34)CN(C(N)=O)C2)c1 [Example 102, 3-(((6-Chloro-2-(trifluoromethyl)quinolin-4-yl)amino)methyl)-3-(4-methoxy-1H-pyrazol-1-yl)azetidine-1-carboxamide]	100 to 1000	0.1 to 100
NC(=O)N1CC(CNc2cc(C(F)(F)F)nc3cccc(F)c23)(c2ccc(F)cn2)C1 [Example 60, 3-(((5-Fluoro-2-(trifluoromethyl)quinolin-4-yl)amino)methyl)-3-(5-fluoropyridin-2-yl)azetidine-1-carboxamide]	> 1000	100 to 1000
Cc1ccc2nc(C(F)(F)F)cc(NCC3(c4ccc(F)cn4)CN(C(N)=O)C3)c2c1 [Example 56, 3-(5-Fluoropyridin-2-yl)-3-(((6-methyl-2-(trifluoromethyl)quinolin-4-yl)amino)methyl)azetidine-1-carboxamide]	100 to 1000	0.1 to 100
N#Cc1ccc2nc(C(F)(F)F)cc(NCC3(c4ccc(F)cn4)CN(C(N)=O)C3)c2c1 [Example 58, 3-(((6-Cyano-2-(trifluoromethyl)quinolin-4-yl)amino)methyl)-3-(5-fluoropyridin-2-yl)azetidine-1-carboxamide]	100 to 1000	100 to 1000
N#Cc1cccc2c(NCC3(c4ccc(F)cn4)CN(C(N)=O)C3)cc(C(F)(F)F)nc12 [Example 64, 3-(((8-Cyano-2-(trifluoromethyl)quinolin-4-yl)amino)methyl)-3-(5-fluoropyridin-2-yl)azetidine-1-carboxamide]	–	> 1000
Cc1cc(C)n(C2(CNc3cc(C(F)(F)F)nc4ccc(Cl)cc34)CN(C(N)=O)C2)n1 [Example 105, 3-(((6-Chloro-2-(trifluoromethyl)quinolin-4-yl)amino)methyl)-3-(3,5-dimethyl-1H-pyrazol-1-yl)azetidine-1-carboxamide]	100 to 1000	–
